Test results from patent publication US10906938B2, “Cell epitopes and combination of cell epitopes for use in the immunotherapy of myeloma and other cancers” (Immatics Biotechnologies GmbH, priority 2015, dated 2021).

Test system: U266 cells
Assay: HLA class I ligand presentation upon carfilzomib treatment on U266 cells (LC-MS/MS)
Type: cell-based, human
Design: key to modulation upon carfilzomib-treatment 24 #1 / modulation upon carfilzomib-treatment 24 #2 / modulation upon carfilzomib-treatment 24 #3 / modulation upon carfilzomib-treatment 48 #1 / modulation upon carfilzomib-treatment 48 #2 / modulation upon carfilzomib-treatment 48 #3: −1: significantly down-modulated; 0: not signifcant/not detected; 1: significantly up-modulated
Conditions: U266 cells, vs mock-treated controls; for modulation upon carfilzomib-treatment 24 #1 / modulation upon carfilzomib-treatment 24 #2 / modulation upon carfilzomib-treatment 24 #3: 24 h after carfilzomib treatment (100 nM, 1 h); for modulation upon carfilzomib-treatment 24 #1 / modulation upon carfilzomib-treatment 48 #1: biological replicate #1; for modulation upon carfilzomib-treatment 24 #2 / modulation upon carfilzomib-treatment 48 #2: biological replicate #2; for modulation upon carfilzomib-treatment 24 #3 / modulation upon carfilzomib-treatment 48 #3: biological replicate #3; for modulation upon carfilzomib-treatment 48 #1 / modulation upon carfilzomib-treatment 48 #2 / modulation upon carfilzomib-treatment 48 #3: 48 h after carfilzomib treatment (100 nM, 1 h)
Experimental: HLA class I and II molecules were isolated using standard immunoaffinity purification as described using the pan-HLA class I specific mAb W6/32, the pan-HLA class II specific mAb T039 and the HLA-DR specific mAB L243 (produced in house).
HLA ligand extracts were analyzed in 5 technical replicates as described previously. In brief, peptide samples were separated by nanoflow HPLC (RSLCnano, ThermoFisher) using a 50 μm×25 cm PepMap RSLC column (Thermo Fisher) and a gradient ranging from 2.4 to 32.0% acetonitrile over the course of 90 min. Eluting peptides were analyzed in an online coupled LTQ Orbitrap XL mass spectrometer (Thermo Fisher) using a top 5 CID (collision induced dissociation) fragmentation method.
Data processing was performed as described previously. In brief, the Mascot search engine (Mascot 2.2.04; Matrix Science, London, UK) was implemented to search the human proteome as comprised in the Swiss-Prot database (20,279 reviewed protein sequences, September 2013) without enzymatic restriction. Potential mutated HLA ligands were searched implementing a database containing the human proteome concatenated with proteins containing single amino acid variants (SAVs) listed in the COSMIC database (http://cancer.sanger.ac.uk/cosmic/). Only recurrent SAVs described in 2 or more samples of hematological origin were included. Oxidized methionine was allowed as a dynamic modification. The false discovery rate was estimated using the Percolator algorithm and set to 5%. Peptide lengths were limited to 8-12 amino acids for HLA class I and 12-25 amino acids for HLA class II. Protein inference was disabled, allowing for multiple protein annotations of peptides. HLA annotation was performed using SYFPEITHI [46] or an extended in-house database. Experimental validation of peptide identifications and HLA annotations was performed by mass spectrometric and functional characterization of synthetic peptides for a subset of peptides.
The inventors quantitatively assessed HLA class I ligand presentation during proteasome inhibitor therapy. Observed was a considerable plasticity of the HLA class I ligandome after treatment with carfilzomib with 17.9±1.1% of MM.1S ligands and 11.2±0.7% of U266 ligands (mean of three biological replicates ±s.d.) showing significant modulation (fold-change ≥4, Po0.01 after Benjamini-Hochberg correction) at t24 h compared with mock-treated controls. Briefly, Cultured MCLs (MM.1S and U266) and primary myeloma samples were incubated with carfilzomib (100 nM, Kyprolis®, available, e.g., from Onyx Pharmaceuticals, Inc.) as an example for a proteasome inhibitor for a 1-h period, followed by three washes in PBS (Gibco) and recultured for additional 24 or 48 h. Controls were incubated with vehicle control (glucose 5%) for 1 h, followed by identical washing and incubation for 24 or 48 h. Experiments were conducted in three biological replicates where indicated.

| Sequence | modulation upon carfilzomib-treatment 24 #1 | modulation upon carfilzomib-treatment 24 #2 | modulation upon carfilzomib-treatment 24 #3 | modulation upon carfilzomib-treatment 48 #1 | modulation upon carfilzomib-treatment 48 #2 | modulation upon carfilzomib-treatment 48 #3 |
| --- | --- | --- | --- | --- | --- | --- |
| RQFWTRTKK | 0 | 0 | 0 | 0 | 0 | 0 |
| KEGLILPETL | 1 | 1 | 0 | 0 | 0 | 0 |
| KPKDPLKISL | −1 | −1 | −1 | 0 | −1 | −1 |
| RPRPPVLSV | 0 | 0 | 0 | 0 | 0 | 0 |
| IIFDRPLLY | 0 | 0 | 0 | 0 | 0 | −1 |
| LLFPYILPPK | 0 | 0 | 0 | 0 | 0 | 0 |
| KTEVHIRPK | 0 | 0 | 0 | 0 | 0 | 0 |
| SPRQALTDF | 0 | 0 | 0 | 0 | 0 | 0 |
| KPSTKALVL | 0 | 0 | 0 | 0 | 0 | 0 |
| RVAKTNSLR | 0 | 0 | 0 | 0 | 0 | 0 |
| ILWETVPSM | 0 | 0 | 0 | 0 | 0 | 0 |
| ALWGRTTLK | 0 | 0 | 0 | 0 | 0 | 0 |
| RPFHGWTSL | 0 | 0 | 0 | 0 | 0 | 0 |
| GEVAPSMFL | 0 | 0 | 0 | 0 | 0 | 0 |
| AEQEIARLVL | 0 | 0 | 0 | 0 | 0 | 0 |
